Experimental data: publication PMC11997881, “Comprehensive Characterization of Bruton’s Tyrosine Kinase Inhibitor Specificity, Potency, and Biological Effects: Insights into Covalent and Noncovalent Mechanistic Signatures” (ACS Pharmacology & Translational Science, 2025)

How the values were obtained:
BTK [1] = conditions: cited from earlier work
BTK [2] = biological target: T1, BTK (Homo sapiens, UniProt Q06187); experiment: scanMAX binding POC, BTK; conditions: 1 μM; zero POC = competition comparable to positive control
T1 construct: host or cells: transiently transfected HEK293 cells
Text: (§1) Comprehensive Characterization of Bruton’s Tyrosine Kinase Inhibitor Specificity, Potency, and
(§2) Biological Effects: Insights into Covalent and Non-Covalent Mechanistic Signatures
(§3) Antonia C. Darragh1, Andrew M. Hanna1, Justin H. Lipner2, Alastair J. King2, Nicole B. Servant1, Mirza Jahic1*
(§4) *To whom correspondence should be addressed: Mirza Jahic, e-mail address: Mirza.Jahic@discovery.eurofinsus.com
(§5) Supporting Table S1. Comparison of BTK inhibitor specificity to TEC family members. TEC family members are
(§6) Burton’s tyrosine kinase (BTK), tyrosine kinase expressed in hepatocellular carcinoma (TEC), bone marrow-
(§7) expressed kinase (BMX/ETK), and T cell-expressed kinase (TXK/RLK), and interleukin-2-inducible T cell kinase
(§8) A zero POC signifies that the compound

[3] = biological target: T2, JAK3 (JH1 catalytic domain) (Homo sapiens, UniProt P52333); experiment: scanMAX binding POC, JAK3; conditions: 1 μM
T2 construct: The JAK3 POC is for its JH1 catalytic domain

JNK1 (MAPK8) = JNK1 (MAPK8) (Homo sapiens, UniProt P45983); experiment: scanMAX binding POC, JNK1; conditions: 1 μM
JNK1 (MAPK8), sequence (P45983 whole entry): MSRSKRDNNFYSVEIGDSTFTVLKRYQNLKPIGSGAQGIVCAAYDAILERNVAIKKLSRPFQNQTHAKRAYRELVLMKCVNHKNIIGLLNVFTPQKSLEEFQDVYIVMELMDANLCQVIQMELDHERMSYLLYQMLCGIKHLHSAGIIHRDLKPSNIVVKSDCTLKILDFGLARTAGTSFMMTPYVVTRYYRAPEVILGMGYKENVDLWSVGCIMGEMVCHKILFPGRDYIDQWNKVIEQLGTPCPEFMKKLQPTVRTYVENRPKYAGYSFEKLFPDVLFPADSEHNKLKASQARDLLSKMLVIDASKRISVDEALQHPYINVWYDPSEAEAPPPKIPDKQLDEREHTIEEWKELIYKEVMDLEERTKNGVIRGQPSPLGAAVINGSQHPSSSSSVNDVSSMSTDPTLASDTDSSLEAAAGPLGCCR

TXK = biological target: T3, TXK (Homo sapiens, UniProt P42681); experiment: scanMAX binding POC, TXK; conditions: 1 μM
T3 sequence (P42681 1-527): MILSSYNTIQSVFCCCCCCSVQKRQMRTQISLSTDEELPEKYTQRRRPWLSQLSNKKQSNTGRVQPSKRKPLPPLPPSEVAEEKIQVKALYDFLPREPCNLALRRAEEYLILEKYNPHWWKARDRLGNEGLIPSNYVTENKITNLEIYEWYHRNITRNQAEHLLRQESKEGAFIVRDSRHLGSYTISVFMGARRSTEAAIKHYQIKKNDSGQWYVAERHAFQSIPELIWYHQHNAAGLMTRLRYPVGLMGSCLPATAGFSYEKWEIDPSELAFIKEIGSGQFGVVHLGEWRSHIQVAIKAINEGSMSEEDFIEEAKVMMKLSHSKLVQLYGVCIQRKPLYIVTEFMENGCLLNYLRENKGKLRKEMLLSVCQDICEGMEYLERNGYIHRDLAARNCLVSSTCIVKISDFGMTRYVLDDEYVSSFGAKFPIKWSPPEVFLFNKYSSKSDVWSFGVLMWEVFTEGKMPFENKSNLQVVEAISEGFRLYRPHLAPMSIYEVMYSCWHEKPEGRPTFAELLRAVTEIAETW
Text: as §1, §2, §3, §4, §5, §6, §7, §8

BLK = BLK (Homo sapiens, UniProt P51451); experiment: scanMAX binding POC, BLK; conditions: 1 μM
BLK, sequence (P51451 whole entry): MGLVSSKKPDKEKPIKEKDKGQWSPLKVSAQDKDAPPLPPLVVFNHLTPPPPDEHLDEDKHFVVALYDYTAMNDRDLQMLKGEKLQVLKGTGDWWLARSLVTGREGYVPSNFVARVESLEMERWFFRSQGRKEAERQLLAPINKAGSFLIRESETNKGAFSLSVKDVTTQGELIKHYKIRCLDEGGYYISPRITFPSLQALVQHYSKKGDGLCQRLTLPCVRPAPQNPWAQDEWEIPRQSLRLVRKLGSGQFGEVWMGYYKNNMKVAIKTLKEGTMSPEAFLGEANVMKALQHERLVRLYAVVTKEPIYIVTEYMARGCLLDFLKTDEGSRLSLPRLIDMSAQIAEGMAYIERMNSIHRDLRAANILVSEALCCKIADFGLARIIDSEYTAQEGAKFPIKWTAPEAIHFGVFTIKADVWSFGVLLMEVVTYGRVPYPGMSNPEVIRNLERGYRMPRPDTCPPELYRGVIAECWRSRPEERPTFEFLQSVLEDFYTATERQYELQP

TEC = biological target: T4, TEC (Homo sapiens, UniProt P42680); experiment: scanMAX binding POC, TEC; conditions: 1 μM
T4 sequence (P42680 1-631): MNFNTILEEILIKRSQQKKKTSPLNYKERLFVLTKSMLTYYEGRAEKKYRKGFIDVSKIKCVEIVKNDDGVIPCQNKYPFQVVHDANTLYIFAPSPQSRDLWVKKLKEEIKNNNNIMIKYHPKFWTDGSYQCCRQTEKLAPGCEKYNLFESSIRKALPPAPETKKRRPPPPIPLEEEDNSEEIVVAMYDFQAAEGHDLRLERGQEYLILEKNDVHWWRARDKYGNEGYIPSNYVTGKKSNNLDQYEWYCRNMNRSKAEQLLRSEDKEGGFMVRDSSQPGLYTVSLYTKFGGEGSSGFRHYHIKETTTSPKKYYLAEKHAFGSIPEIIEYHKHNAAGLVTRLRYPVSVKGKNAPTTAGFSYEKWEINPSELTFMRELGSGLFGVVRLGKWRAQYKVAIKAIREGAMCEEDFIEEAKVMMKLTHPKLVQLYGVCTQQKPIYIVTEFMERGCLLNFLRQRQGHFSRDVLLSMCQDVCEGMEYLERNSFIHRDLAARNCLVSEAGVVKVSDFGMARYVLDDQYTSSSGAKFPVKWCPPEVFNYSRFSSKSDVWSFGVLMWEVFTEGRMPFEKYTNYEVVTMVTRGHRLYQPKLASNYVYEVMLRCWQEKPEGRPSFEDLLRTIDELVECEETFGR
Text: as §1, §2, §3, §4, §5, §6, §7, §8

JNK2 (MAPK9) = JNK2 (MAPK9) (Homo sapiens, UniProt P45984); experiment: scanMAX binding POC, JNK2; conditions: 1 μM
JNK2 (MAPK9), sequence (P45984 whole entry): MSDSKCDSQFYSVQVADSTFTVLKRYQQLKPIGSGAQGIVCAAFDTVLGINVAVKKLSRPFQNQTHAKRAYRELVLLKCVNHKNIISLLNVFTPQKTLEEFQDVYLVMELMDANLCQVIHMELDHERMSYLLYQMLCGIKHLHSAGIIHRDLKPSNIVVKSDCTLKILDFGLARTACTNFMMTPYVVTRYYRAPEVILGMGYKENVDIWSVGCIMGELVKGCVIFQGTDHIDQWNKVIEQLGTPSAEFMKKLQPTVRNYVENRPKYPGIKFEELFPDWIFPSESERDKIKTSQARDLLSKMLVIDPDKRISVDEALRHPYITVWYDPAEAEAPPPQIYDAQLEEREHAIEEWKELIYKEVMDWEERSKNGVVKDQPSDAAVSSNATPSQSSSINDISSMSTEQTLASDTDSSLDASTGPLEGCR

BTK C481S = conditions: average of literature values; read-out: average published Kd for BTK C481S; cited from earlier work
patients with CLL = system: patients with CLL; parameters: method as in NCT02477696; conditions: phase III, P = 0.02, ref NCT02477696; cited from earlier work
JNK3 (MAPK10) = JNK3 (MAPK10) (Homo sapiens, UniProt P53779); experiment: scanMAX binding POC, JNK3; conditions: 1 μM
MKK7 = biological target: T5, MKK7 (Homo sapiens, UniProt O14733); experiment: scanMAX binding POC, MKK7; conditions: 1 μM
T5 sequence (O14733 1-419): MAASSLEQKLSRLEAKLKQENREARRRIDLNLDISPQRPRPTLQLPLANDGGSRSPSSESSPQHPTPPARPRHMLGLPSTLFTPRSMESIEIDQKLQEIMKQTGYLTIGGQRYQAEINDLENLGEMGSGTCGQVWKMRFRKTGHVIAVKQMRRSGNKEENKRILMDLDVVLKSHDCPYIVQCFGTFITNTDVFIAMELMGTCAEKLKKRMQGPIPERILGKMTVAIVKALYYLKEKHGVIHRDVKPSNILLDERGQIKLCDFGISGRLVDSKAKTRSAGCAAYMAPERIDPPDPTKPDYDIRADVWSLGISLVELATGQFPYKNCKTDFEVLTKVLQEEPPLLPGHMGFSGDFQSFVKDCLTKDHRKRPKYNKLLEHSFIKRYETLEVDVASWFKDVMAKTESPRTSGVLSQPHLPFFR

ERBB2 = ERBB2 (Homo sapiens, UniProt P04626); experiment: scanMAX binding POC, ERBB2; conditions: 1 μM
ERBB2, sequence (P04626 23-1255): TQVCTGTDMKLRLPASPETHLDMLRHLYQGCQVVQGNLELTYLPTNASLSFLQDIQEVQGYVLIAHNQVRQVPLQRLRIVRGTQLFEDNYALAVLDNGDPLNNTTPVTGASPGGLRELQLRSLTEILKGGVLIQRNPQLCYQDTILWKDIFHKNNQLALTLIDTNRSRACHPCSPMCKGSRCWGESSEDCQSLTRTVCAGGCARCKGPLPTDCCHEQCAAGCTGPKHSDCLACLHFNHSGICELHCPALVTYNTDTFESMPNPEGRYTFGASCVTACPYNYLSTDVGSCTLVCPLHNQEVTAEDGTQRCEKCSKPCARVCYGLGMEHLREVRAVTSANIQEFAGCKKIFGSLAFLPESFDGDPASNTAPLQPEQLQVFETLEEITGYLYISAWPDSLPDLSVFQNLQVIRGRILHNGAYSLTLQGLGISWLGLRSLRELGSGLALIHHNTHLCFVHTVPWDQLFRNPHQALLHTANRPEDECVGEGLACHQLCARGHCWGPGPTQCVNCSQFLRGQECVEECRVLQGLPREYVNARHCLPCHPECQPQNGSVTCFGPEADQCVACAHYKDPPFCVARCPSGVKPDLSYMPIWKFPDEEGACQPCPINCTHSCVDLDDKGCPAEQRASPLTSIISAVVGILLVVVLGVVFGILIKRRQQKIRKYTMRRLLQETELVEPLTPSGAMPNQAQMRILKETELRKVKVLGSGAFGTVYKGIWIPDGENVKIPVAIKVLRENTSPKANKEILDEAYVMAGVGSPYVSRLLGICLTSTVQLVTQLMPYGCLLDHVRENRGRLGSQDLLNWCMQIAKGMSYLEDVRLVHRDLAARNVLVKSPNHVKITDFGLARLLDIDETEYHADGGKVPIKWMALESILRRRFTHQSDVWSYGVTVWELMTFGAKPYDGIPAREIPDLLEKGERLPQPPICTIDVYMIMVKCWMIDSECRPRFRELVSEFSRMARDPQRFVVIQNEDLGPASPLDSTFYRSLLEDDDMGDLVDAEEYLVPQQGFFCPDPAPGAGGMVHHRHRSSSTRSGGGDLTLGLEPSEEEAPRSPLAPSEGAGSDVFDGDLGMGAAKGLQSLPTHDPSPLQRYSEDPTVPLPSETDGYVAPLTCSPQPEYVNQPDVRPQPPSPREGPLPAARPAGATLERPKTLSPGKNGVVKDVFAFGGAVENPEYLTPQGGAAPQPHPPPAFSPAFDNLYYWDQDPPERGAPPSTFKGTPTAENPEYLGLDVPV

ERBB3 = ERBB3 (Homo sapiens, UniProt P21860); experiment: scanMAX binding POC, ERBB3; conditions: 1 μM
ERBB4 = ERBB4 (Homo sapiens, UniProt Q15303); experiment: scanMAX binding POC, ERBB4; conditions: 1 μM
ERBB4, sequence (Q15303 26-1308): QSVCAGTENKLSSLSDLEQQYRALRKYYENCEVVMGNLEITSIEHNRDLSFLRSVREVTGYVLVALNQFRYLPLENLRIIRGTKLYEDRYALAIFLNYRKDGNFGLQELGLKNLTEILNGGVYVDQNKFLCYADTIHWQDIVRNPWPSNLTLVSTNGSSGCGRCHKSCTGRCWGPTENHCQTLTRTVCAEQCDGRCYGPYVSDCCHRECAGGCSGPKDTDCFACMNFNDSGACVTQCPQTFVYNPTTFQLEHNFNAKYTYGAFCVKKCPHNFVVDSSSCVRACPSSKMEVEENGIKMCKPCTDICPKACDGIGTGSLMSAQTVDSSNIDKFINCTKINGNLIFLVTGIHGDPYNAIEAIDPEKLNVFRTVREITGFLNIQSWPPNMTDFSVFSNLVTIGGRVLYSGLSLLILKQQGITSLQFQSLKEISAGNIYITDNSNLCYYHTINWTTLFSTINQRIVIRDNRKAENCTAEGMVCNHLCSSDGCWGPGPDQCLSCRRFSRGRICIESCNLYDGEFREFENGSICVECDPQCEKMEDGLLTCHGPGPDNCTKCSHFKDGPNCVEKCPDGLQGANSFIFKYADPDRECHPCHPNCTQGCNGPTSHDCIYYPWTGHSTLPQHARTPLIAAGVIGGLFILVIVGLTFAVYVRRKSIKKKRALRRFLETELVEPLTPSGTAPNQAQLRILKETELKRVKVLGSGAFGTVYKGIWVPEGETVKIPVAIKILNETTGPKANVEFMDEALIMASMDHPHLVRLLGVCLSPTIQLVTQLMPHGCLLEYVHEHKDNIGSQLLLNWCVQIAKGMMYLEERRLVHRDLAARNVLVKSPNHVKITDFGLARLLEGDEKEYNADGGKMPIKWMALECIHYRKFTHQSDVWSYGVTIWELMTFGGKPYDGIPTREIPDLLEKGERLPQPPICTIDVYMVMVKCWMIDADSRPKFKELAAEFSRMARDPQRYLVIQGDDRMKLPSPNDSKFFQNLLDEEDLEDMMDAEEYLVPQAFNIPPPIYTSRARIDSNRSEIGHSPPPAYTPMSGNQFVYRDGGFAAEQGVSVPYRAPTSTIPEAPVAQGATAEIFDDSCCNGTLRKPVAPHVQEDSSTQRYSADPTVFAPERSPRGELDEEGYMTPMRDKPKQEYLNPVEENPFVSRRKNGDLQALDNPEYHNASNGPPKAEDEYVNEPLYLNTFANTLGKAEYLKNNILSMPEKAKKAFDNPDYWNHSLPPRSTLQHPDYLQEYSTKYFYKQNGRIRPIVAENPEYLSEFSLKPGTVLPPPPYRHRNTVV

ITK = biological target: T6, ITK (Homo sapiens, UniProt Q08881); experiment: scanMAX binding POC, ITK; conditions: 1 μM
T6 sequence (Q08881 1-620): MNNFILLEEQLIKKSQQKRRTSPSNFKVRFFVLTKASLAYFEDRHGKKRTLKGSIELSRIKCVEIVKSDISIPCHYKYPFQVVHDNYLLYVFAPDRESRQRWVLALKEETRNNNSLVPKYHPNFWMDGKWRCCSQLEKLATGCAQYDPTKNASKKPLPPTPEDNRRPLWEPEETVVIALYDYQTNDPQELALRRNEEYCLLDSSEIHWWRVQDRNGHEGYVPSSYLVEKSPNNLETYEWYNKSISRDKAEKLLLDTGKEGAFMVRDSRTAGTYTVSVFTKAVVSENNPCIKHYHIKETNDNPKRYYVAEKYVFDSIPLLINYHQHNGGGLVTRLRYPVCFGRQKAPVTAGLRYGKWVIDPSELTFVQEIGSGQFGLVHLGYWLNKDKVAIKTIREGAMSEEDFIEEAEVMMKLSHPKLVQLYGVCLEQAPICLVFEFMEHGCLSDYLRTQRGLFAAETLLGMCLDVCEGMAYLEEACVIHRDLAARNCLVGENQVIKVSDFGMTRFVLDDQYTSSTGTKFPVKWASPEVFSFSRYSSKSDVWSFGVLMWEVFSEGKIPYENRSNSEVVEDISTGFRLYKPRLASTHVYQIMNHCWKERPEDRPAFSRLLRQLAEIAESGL
Text: as §1, §2, §3, §4, §5, §6, §7, §8

EGFR = EGFR (Homo sapiens, UniProt P00533); experiment: scanMAX binding POC, EGFR; conditions: 1 μM
EGFR, sequence (P00533 25-1210): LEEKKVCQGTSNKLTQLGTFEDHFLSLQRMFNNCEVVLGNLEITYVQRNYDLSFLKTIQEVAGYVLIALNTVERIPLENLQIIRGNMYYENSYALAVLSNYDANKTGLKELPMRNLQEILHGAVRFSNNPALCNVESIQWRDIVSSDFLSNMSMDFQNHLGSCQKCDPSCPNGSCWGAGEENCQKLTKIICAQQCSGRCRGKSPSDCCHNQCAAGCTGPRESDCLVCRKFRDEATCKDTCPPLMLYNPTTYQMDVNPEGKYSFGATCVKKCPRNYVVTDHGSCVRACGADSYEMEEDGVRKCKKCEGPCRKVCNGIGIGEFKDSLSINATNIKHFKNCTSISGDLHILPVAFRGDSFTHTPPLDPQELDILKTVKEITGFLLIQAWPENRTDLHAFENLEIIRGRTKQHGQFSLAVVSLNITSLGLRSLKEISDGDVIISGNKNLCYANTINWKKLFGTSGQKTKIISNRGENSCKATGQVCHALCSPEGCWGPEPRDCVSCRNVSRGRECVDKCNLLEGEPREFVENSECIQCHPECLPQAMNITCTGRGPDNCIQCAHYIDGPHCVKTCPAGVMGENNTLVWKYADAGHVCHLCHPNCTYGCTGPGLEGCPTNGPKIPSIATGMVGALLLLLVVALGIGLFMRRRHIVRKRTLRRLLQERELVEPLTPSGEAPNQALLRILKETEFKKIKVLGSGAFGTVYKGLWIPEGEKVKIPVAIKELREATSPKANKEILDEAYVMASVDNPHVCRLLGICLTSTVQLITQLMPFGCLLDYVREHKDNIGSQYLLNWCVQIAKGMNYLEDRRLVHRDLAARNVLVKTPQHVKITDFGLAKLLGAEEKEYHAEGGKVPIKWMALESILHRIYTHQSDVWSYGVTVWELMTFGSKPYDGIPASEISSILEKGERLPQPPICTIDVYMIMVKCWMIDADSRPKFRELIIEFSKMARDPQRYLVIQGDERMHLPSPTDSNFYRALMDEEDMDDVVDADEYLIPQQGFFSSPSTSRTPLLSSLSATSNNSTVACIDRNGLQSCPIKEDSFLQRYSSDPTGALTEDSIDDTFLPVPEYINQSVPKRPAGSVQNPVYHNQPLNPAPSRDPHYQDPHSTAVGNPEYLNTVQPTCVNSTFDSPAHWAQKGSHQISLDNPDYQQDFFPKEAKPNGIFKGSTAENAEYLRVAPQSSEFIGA

[4] = system: R/R PCNSL lymphoma patients; conditions: three-year follow-up; cited from earlier work

Row | Compound | IC50 (BTK [1]) [nM] | BTK binding POC (BTK [2]) | JAK3 binding POC [3] | JNK1 (MAPK8) POC (JNK1 (MAPK8)) | TXK binding POC (TXK) | BLK binding POC (BLK) | TEC binding POC (TEC) | JNK2 (MAPK9) POC (JNK2 (MAPK9)) | Kd (BTK C481S) [nM] | adverse cardiovascular events (patients with CLL) [%] | JNK3 (MAPK10) POC (JNK3 (MAPK10)) | MKK7 binding POC (MKK7) | ERBB2 binding POC (ERBB2) | ERBB3 binding POC (ERBB3) | ERBB4 binding POC (ERBB4) | ITK binding POC (ITK) | EGFR binding POC (EGFR) | overall response rate [4] [%]
1 | CC#CC(=O)N1CCC[C@H]1c1nc(-c2ccc(C(=O)Nc3ccccn3)cc2)c2c(N)nccn12 [Acalabrutinib] | […] | 0.2% of control | 80% of control | 93% of control | 47% of control | 57% of control | 14% of control | 58% of control | 358 | 9.4 | 97% of control | 75% of control | 4.7% of control | 64% of control | 6.9% of control | 100% of control | 61% of control | 
2 | CC#CC(=O)N1CC[C@@H](n2c(=O)n(-c3ccc(Oc4ccccc4)cc3)c3c(N)ncnc32)C1 [Tirabrutinib] | […] | 0.35% of control |  | 99% of control | 14% of control | 14% of control | 9.4% of control | 92% of control |  |  | […] | 87% of control | 26% of control | 12% of control | 85% of control |  | 74% of control | 63.6
